IC50 data for 1 compound are collected here from publication PMC12225141 (BMC Chemistry, 2025).

The assay addresses calf intestinal alkaline phosphatase (cIAP) (Bos taurus, UniProt P19111). As to the kind of experiment: spectrophotometric p-NPP hydrolysis assay at […] nm, commercial cIAP. In kind it is biochemical.

Sequence of calf intestinal alkaline phosphatase (cIAP) (P19111 20-506): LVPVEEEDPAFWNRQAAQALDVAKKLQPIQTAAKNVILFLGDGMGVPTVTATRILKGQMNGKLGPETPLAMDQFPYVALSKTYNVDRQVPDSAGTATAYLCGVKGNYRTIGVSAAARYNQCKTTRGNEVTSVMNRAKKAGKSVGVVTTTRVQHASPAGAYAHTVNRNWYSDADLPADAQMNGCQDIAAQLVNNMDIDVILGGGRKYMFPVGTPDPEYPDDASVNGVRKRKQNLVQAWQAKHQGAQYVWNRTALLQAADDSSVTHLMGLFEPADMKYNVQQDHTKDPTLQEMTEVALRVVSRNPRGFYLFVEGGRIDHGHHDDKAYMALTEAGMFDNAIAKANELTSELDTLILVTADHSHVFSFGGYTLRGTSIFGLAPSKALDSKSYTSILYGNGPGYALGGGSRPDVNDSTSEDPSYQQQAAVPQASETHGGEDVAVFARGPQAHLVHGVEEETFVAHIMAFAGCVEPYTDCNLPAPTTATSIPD

With `CCNC(=S)NC(=O)c1cccc2ccccc12` [NA-MT, N-(ethylcarbamothioyl)-1-naphthamide], the IC50 came to 9.875 ± 0.05 µM.
